In publication PMC4917657, “SP6616 as a new Kv2.1 channel inhibitor efficiently promotes β-cell survival involving both PKC/Erk1/2 and CaM/PI3K/Akt signaling pathways” (Cell Death & Disease, 2016):

Test system: T1, Kv2.2
T1 construct: gene KCNB2
Experiment: channel inhibition in CHO cells transfected with pcDNA3.1a-Kv2.[…] (Supplementary Figure […])
Assay type: cell-based

- IC50: 13.5 µM
Structure (SMILES): CCOC(=O)C1=C(C)N=c2sc(=Cc3ccc(O)c(OC)c3)c(=O)n2C1c1ccc(OC)c(OCC)c1 (stereo not shown) [SP6616, ethyl 5-(3-ethoxy-4-methoxyphenyl)-2-(4-hydroxy-3-methoxybenzylidene)-7-methyl-3-oxo-2,3-dihydro-5H-[1,3]thiazolo[3,2–a]pyrimidine-6-carboxylate]
